Among the data in patent publication US8946203B2, “Benzodioxane inhibitors of leukotriene production” (Boehringer Ingelheim International GmbH, priority 2012, dated 2015) are IC50 values, retold here.

For this assay, the target named is T1, human LTA4 hydrolase (Homo sapiens, UniProt P09960).
T1 sequence (P09960 1-611): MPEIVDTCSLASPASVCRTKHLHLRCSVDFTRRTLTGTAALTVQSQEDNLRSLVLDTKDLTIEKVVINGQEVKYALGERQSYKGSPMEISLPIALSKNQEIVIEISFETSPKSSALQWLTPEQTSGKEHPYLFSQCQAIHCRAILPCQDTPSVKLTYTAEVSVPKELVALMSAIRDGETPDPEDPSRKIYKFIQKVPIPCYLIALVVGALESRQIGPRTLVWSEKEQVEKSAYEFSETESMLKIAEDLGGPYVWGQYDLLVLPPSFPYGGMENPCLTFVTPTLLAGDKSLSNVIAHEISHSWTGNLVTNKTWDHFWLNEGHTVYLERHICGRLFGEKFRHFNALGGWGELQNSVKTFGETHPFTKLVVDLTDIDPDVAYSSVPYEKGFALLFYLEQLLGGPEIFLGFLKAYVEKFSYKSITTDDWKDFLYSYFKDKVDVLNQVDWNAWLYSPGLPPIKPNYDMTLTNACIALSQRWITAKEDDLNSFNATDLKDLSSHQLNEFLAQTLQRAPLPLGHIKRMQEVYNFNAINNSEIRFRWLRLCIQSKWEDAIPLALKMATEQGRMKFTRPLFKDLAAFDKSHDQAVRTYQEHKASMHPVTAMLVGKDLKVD
Nature of the assay: LTA4H Enzyme assay (cleavage of Arg-AMC, fluorescence). It is filed as biochemical. The following applies: LTA4H Enzyme 1 nM, Arg-AMC substrate 50 μM, room temperature 1 h, fluorescence; read-out: IC50 values of LTA4H Enzyme assay. As to the method: The compounds of the invention are assessed for the ability to interact with human LTA4 hydrolase in an enzymatic assay that measures the ability of the enzyme to cleave the peptide bond of arginyl-aminomethylcoumarin (Arg-AMC). LTA4H Enzyme (1 nM final), Arg-AMC substrate (50 μM final), and compound are combined in a reaction buffer (50 mM Tris-HCl (pH 7.5), 100 mM KCl, 0.5% bovine serum albumin) at room temperature for 1 h. The formation of product is assessed by measuring the fluorescence of aminomethylcoumarin product (excitation wavelength 380 nm/emission wavelength 460 nm).
As to `c1ccc2c(c1)OCC(c1ccc(CN3CCOCC3)cc1)O2` (racemic) [Example 2, 4-[4-(2,3-dihydro-1,4-benzodioxin-2-yl)benzyl]morpholine], the IC50 (in general, the concentration that gives 50% inhibition) was 2.45 nM.

With `CC1(C)CCN(Cc2ccc(C3COc4ccccc4O3)cc2)CC1` (racemic) [Example 3, 1-[4-(2,3-dihydro-1,4-benzodioxin-2-yl)benzyl]-4,4-dimethylpiperidine], the half-maximal inhibitory concentration (IC50) worked out at 2.57 nM.

Turning to `O=C1NCCC12CCN(Cc1ccc(C3COc4ccccc4O3)cc1)CC2` (racemic) [Example 4, 8-[4-(2,3-dihydro-1,4-benzodioxin-2-yl)benzyl]-2,8-diazaspiro[4.5]decan-1-one], the IC50 came to 0.74 nM.

Consider `FC1CCN(Cc2ccc(C3COc4ccccc4O3)cc2)CC1` (racemic) [Example 5, 1-[4-(2,3-dihydro-1,4-benzodioxin-2-yl)benzyl]-4-fluoropiperidine], for which the IC50 came to 2.96 nM.

As for `O=S1(=O)CCN(Cc2ccc(C3COc4ccccc4O3)cc2)CC1` (racemic) [Example 7, 4-[4-(2,3-dihydro-1,4-benzodioxin-2-yl)benzyl]thiomorpholine 1,1-dioxide], the IC50 was 2.79 nM.

`CC(=O)N1CCN(Cc2ccc(C3COc4ccccc4O3)cc2)CC1` (racemic) [Example 11, 1-{4-[4-(2,3-dihydro-1,4-benzodioxin-2-yl)benzyl]piperazin-1-yl}ethanone]: the IC50 is 2.95 nM.

With `O=C(CNCc1ccc(C2COc3ccccc3O2)cc1)N1CCCC1` (racemic) [Example 12, 2-{[4-(2,3-dihydro-1,4-benzodioxin-2-yl)benzyl]amino}-1-(pyrrolidin-1-yl)ethanone], the IC50 was 10.2 nM.

On to `c1cnc2c(c1)OCC(c1ccc(CN3CCCC3)cc1)O2` (racemic) [Example 15, 3-[4-(pyrrolidin-1-ylmethyl)phenyl]-2,3-dihydro[1,4]dioxin[2,3-b]pyridine], for which the IC50 amounted to 0.36 nM.

For the compound `c1ccc2c(c1)OCC(c1ccc(CN3CCn4cnnc4C3)cc1)O2` (racemic) [Example 16, 7-[4-(2,3-dihydro-1,4-benzodioxin-2-yl)benzyl]-5,6,7,8-tetrahydro[1,2,4]triazolo[4,3-a]pyrazine], the IC50 amounted to 2.32 nM.

Turning to `O=S1(=O)CCN(Cc2ccc(C3COc4cccnc4O3)cc2)CC1` (racemic) [Example 17, 3-{4-[(1,1-dioxidothiomorpholin-4-yl)methyl]phenyl}-2,3-dihydro[1,4]dioxin[2,3-b]pyridine], the IC50 came out at 0.77 nM.

As for `CC(C)(C)NCc1ccc(C2COc3ccccc3O2)cc1` (racemic) [Example 23, N-[4-(2,3-dihydro-1,4-benzodioxin-2-yl)benzyl]-2-methylpropan-2-amine], the IC50 was determined as 5.2 nM.

`CC[C@@H](C)NCc1ccc(C2COc3ccccc3O2)cc1` (mixture of isomers) [Example 24, (2R)-N-[4-(2,3-dihydro-1,4-benzodioxin-2-yl)benzyl]butan-2-amine]: the IC50 came out at 5.9 nM.

For the compound `OCC1CCN(Cc2ccc(C3COc4ccccc4O3)cc2)CC1` (racemic) [Example 27, {1-[4-(2,3-dihydro-1,4-benzodioxin-2-yl)benzyl]piperidin-4-yl}methanol], the IC50 was 1.2 nM.

Take `CC(C)(O)C1CCN(Cc2ccc(C3COc4ccccc4O3)cc2)CC1` (racemic) [Example 28, 2-{1-[4-(2,3-dihydro-1,4-benzodioxin-2-yl)benzyl]piperidin-4-yl}propan-2-ol]: the IC50 was 3.4 nM.

As to `OCCCC1CCN(Cc2ccc(C3COc4ccccc4O3)cc2)CC1` (racemic) [Example 29, 3-{1-[4-(2,3-dihydro-1,4-benzodioxin-2-yl)benzyl]piperidin-4-yl}propan-1-ol], the IC50 is 2.04 nM.

Take `CN1CCCN(Cc2ccc(C3COc4ccccc4O3)cc2)CC1` (racemic) [Example 30, 1-[4-(2,3-dihydro-1,4-benzodioxin-2-yl)benzyl]-4-methyl-1,4-diazepane]: the IC50 came out at 1.77 nM.

`CC(=O)N1CCCN(Cc2ccc(C3COc4ccccc4O3)cc2)CC1` (racemic) [Example 31, 1-{4-[4-(2,3-dihydro-1,4-benzodioxin-2-yl)benzyl]-1,4-diazepan-1-yl}ethanone]: the IC50 came out at 1.54 nM.

In the case of `c1ccc2c(c1)OCC(c1ccc(CN3CCCOCC3)cc1)O2` (racemic) [Example 32, 4-[4-(2,3-dihydro-1,4-benzodioxin-2-yl)benzyl]-1,4-oxazepan], the IC50 was 1.8 nM.

In the case of `COCCN(C)Cc1ccc(C2COc3ccccc3O2)cc1` (racemic) [Example 33, N-[4-(2,3-dihydro-1,4-benzodioxin-2-yl)benzyl]-2-methoxy-N-methylethanamine], the IC50 came to 3.19 nM.

For the compound `O[C@@H]1CCN(Cc2ccc(C3COc4ccccc4O3)cc2)C1` (mixture of isomers) [Example 34, (3R)-1-[4-(2,3-dihydro-1,4-benzodioxin-2-yl)benzyl]pyrrolidin-3-ol], the IC50 was determined as 1.89 nM.

As to `O=C1NC(=O)C2(CCN(Cc3ccc(C4COc5ccccc5O4)cc3)CC2)N1` (racemic) [Example 35, 8-[4-(2,3-dihydro-1,4-benzodioxin-2-yl)benzyl]-1,3,8-triazaspiro[4.5]decan-2,4-dione], the IC50 was 0.26 nM.

With `COC1CN(Cc2ccc(C3COc4ccccc4O3)cc2)C1` (racemic) [Example 36, 1-[4-(2,3-dihydro-1,4-benzodioxin-2-yl)benzyl]-3-methoxyazetidine], the IC50 was 4.45 nM.

With `CN(C)C(=O)CC1CCN(Cc2ccc(C3COc4ccccc4O3)cc2)CC1` (racemic) [Example 38, 2-{1-[4-(2,3-dihydro-1,4-benzodioxin-2-yl)benzyl]piperidin-4-yl}-N,N-dimethylacetamide], the IC50 was 1.14 nM.

In the case of `CS(=O)(=O)C1CCN(Cc2ccc(C3COc4ccccc4O3)cc2)CC1` (racemic) [Example 39, 1-[4-(2,3-dihydro-1,4-benzodioxin-2-yl)benzyl]-4-(methylsulfonyl)piperidine], the IC50 was found to be 2.14 nM.

Turning to `c1ccc2c(c1)OCC(c1ccc(CN3CCCCCC3)cc1)O2` (racemic) [Example 40, 1-[4-(2,3-dihydro-1,4-benzodioxin-2-yl)benzyl]azepane], the IC50 amounted to 0.82 nM.

Regarding `c1ccc2c(c1)OCC(c1ccc(CNC3CCCC3)cc1)O2` (racemic) [Example 41, N-[4-(2,3-dihydro-1,4-benzodioxin-2-yl)benzyl]cyclopentanamine], the IC50 came to 3.71 nM.

`CN(CCc1ccccn1)Cc1ccc(C2COc3ccccc3O2)cc1` (racemic) [Example 42, N-[4-(2,3-dihydro-1,4-benzodioxin-2-yl)benzyl]-N-methyl-2-(pyridin-2-yl)ethanamine]: the IC50 came to 0.69 nM.

Take `c1ccc2c(c1)OCC(c1ccc(CNCC3CC3)cc1)O2` (racemic) [Example 43, 1-cyclopropyl-N-[4-(2,3-dihydro-1,4-benzodioxin-2-yl)benzyl]methanamine]: the IC50 turned out to be 4.42 nM.

Regarding `CCN(CC)Cc1ccc(C2COc3ccccc3O2)cc1` (racemic) [Example 45, N-[4-(2,3-dihydro-1,4-benzodioxin-2-yl)benzyl]-N-ethylethanamine], the IC50 was 0.9 nM.

Take `N#CC1CN(Cc2ccc(C3COc4ccccc4O3)cc2)C1` (racemic) [Example 46, 1-[4-(2,3-dihydro-1,4-benzodioxin-2-yl)benzyl]azetidine-3-carbonitrile]: the IC50 was found to be 24.8 nM.

`COC1CCN(Cc2ccc(C3COc4ccccc4O3)cc2)C1` (racemic) [Example 47, 1-[4-(2,3-dihydro-1,4-benzodioxin-2-yl)benzyl]-3-methoxypyrrolidine]: the IC50 came out at 1.73 nM.

For the compound `CS(=O)(=O)NC1CCN(Cc2ccc(C3COc4ccccc4O3)cc2)CC1` (racemic) [Example 48, N-{1-[4-(2,3-dihydro-1,4-benzodioxin-2-yl)benzyl]piperidin-4-yl}methanesulfonamide], the IC50 was 0.16 nM.

Turning to `O=C1CCCN1CC1CCN(Cc2ccc(C3COc4ccccc4O3)cc2)CC1` (racemic) [Example 50, 1-({1-[4-(2,3-dihydro-1,4-benzodioxin-2-yl)benzyl]piperidin-4-yl}methyl)pyrrolidin-2-one], the IC50 turned out to be 0.6 nM.

Take `CN(C)C(=O)C1CCN(Cc2ccc(C3COc4ccccc4O3)cc2)CC1` (racemic) [Example 51, 1-[4-(2,3-dihydro-1,4-benzodioxin-2-yl)benzyl]-N,N-dimethylpiperidine-4-carboxamide]: the IC50 stood at 0.82 nM.

Turning to `c1cncc(CNCc2ccc(C3COc4ccccc4O3)cc2)c1` (racemic) [Example 54, 1-[4-(2,3-dihydro-1,4-benzodioxin-2-yl)phenyl]-N-(pyridin-3-ylmethyl)methanamine], the IC50 is 5.93 nM.

With `Cn1cnc(CNCc2ccc(C3COc4ccccc4O3)cc2)c1` (racemic) [Example 55, 1-[4-(2,3-dihydro-1,4-benzodioxin-2-yl)phenyl]-N-[(1-methyl-1H-imidazol-4-yl)methyl]methanamine], the IC50 came out at 3.63 nM.
